Laboratory results reported in patent US20240216369A1, “THE USE OF A SPLICING MODULATOR FOR A TREATMENT SLOWING PROGRESSION OF HUNTINGTON'S DISEASE” (Novartis AG, priority 2019, published 2024).

Legend:
[1] = Adult ACAT/PBPK model; design: species or system human; conditions: pediatric value entered
Protocol: To scale up the branaplam pediatric ACAT/PBPK model to an adult ACAT/PBPK model, adult CL projected from nonclinical species was applied to replace the pediatric CL, and the body weight of 70 kg was used. Dose volume was set 250 mL. The distribution parameters estimated for the pediatric patients were entered to the adult PK model. […] Model predictions of branaplam exposures after single oral administration of branaplam to adults are depicted in Table 5.

[2] = system: HTT mRNA; test: Blood HTT mRNA in infants with Type 1 SMA (droplet digital PCR); format: in vivo, human
Protocol: The effect of branaplam on the expression levels of Huntingtin (HTT) mRNA was assessed in infants with Type I spinal muscular atrophy who were enrolled in an open-label multi-part first-in-human proof of concept study of oral branaplam.
Patients were dosed once weekly with branaplam. The branaplam doses were escalated in subsequent cohorts until MTD was determined or when PK results confirmed that the MTD could not be reached due to a potential pharmacokinetic exposure plateau at higher doses. […]
Levels of HTT mRNA and novel-exon-included HTT mRNA were then quantified by polymerase chain reaction (PCR) using the Bio-Rad QX200 droplet digital PCR system. […]
For HTT mRNA levels, two independent predesigned quantitative PCR assays (Assay Hs.PT.58.14833829 with forward primer 5′-[…]-3′ (SEQ ID NO: 10), reverse primer 5′-[…]-3′ (SEQ ID NO: 11) and probe 5′-56-FAM/CGCTTCCAC/ZEN/TTGTCTTCATTCTCCTTGT/3IABKFQ-3′ (SEQ ID NO: 12) and assay Hs.PT.58.25550542 with forward primer 5′-[…]-3′ (SEQ ID NO: 13), reverse primer 5′-CACCACTCTGGCTTCACAA-3′ (SEQ ID NO: 14) and probe 5′-56-FAM/CCCGACAGC/ZEN/GAGTCAGTGATTGTT/3IABKFQ-3′ (SEQ ID NO: 15), purchased from Integrated DNA Technologies, Inc.) were used. […]

SMILES: CC1(C)CC(Oc2ccc(-c3ccc(-c4cn[nH]c4)cc3O)nn2)CC(C)(C)N1 [Compound 18, 5-(1H-pyrazol-4-yl)-2-(6-((2,2,6,6-tetramethylpiperidin-4-yl)oxy)pyridazin-3-yl)phenol]
- Vc [1]: 3.62 (Optimized value using GastroPlus ™ based on the 1/h
- k12 [1]: 1.41 (Optimized value using GastroPlus ™ based on the 1/h
- k21 [1]: 0.144 (Optimized value using GastroPlus ™ based on the 1/h
- inclusion of the novel exon into blood HTT mRNA ([2]; infants with Type 1 SMA, once weekly oral, up to 1450 study days, listed as branaplam): induced and elevated
- blood HTT mRNA levels between study days 904 and 1450 ([2]; only 1-5 long-term treated subjects): returned to values around baseline levels
